Converted amounts (≈) assume the structure as drawn.

Data on 8 compounds can be found in ChEMBL document CHEMBL3739277, “Design, synthesis, and antibacterial evaluation of novel azolylthioether quinolones as MRSA DNA intercalators” (2015).

Holding throughout (format): functional
One assay has as its system Pseudomonas aeruginosa. The assay is described as follows: Antibacterial activity against Pseudomonas aeruginosa ATCC27853 assessed as growth inhibition incubated at 37 degC for 24 hrs by micro broth dilution method. Conditions: ATCC27853, 24 h. A general note: Broth dilution looks for growth in wells or tubes with falling amounts of substance.
A short description of assay [1]: Antifungal activity against Candida mycoderma ATCC9888 assessed as growth inhibition incubated at 35 degC for 24 hrs by micro broth dilution method. Particulars: Kregervanrija fluxuum.
In a further assay the test system is Saccharomyces cerevisiae. The assay is described as follows: Antifungal activity against Saccharomyces cerevisiae ATCC9763 assessed as growth inhibition incubated at 35 degC for 24 hrs by micro broth dilution method. Particulars: ATCC9763, 24 h.
The test system of assay [2] is Staphylococcus aureus. The assay is described as follows: Antibacterial activity against Staphylococcus aureus ATCC25923 assessed as growth inhibition incubated at 37 degC for 24 hrs by micro broth dilution method. Particulars: ATCC25923, 24 h.
The subject of a further assay is Candida albicans. The assay is described as follows: Antifungal activity against Candida albicans ATCC10231 assessed as growth inhibition incubated at 35 degC for 24 hrs by micro broth dilution method. Particulars: ATCC10231, 24 h.
Another assay deals with Aspergillus flavus. The assay is described as follows: Antifungal activity against Aspergillus flavus ATCC204304 assessed as growth inhibition incubated at 35 degC for 24 hrs by micro broth dilution method. Conditions: ATCC204304, 24 h.
The next assay relates to Cyberlindnera jadinii. The assay is described as follows: Antifungal activity against Candida utilis ATCC9950 assessed as growth inhibition incubated at 35 degC for 24 hrs by micro broth dilution method. Particulars: Williopsis jadinii, ATCC9950, 24 h.
Assay [3] has as its system Staphylococcus aureus. The assay is described as follows: Antibacterial activity against methicillin resistant Staphylococcus aureus N315 assessed as growth inhibition incubated at 37 degC for 24 hrs by micro broth dilution method. Conditions: N315, 24 h.
The subject of the next assay is Bacillus subtilis. The assay is described as follows: Antibacterial activity against Bacillus subtilis ATCC6633 assessed as growth inhibition incubated at 37 degC for 24 hrs by micro broth dilution method. Conditions: ATCC6633, 24 h.
The nature of assay [4]: Antibacterial activity against Eberthella typhosa ATCC14028 assessed as growth inhibition incubated at 37 degC for 24 hrs by micro broth dilution method. Particulars: ATCC14028, 24 h.
For a further assay, the system named is Escherichia coli. The assay is described as follows: Antibacterial activity against Escherichia coli JM109 assessed as growth inhibition incubated at 37 degC for 24 hrs by micro broth dilution method. Particulars: JM109, 24 h.
Assay [5] can be described thus: Antibacterial activity against Bacillus proteus ATCC13315 assessed as growth inhibition incubated at 37 degC for 24 hrs by micro broth dilution method. Conditions: ATCC13315, 24 h.
The next assay deals with Micrococcus luteus. The assay is described as follows: Antibacterial activity against Micrococcus luteus ATCC4698 assessed as growth inhibition incubated at 37 degC for 24 hrs by micro broth dilution method. Conditions: ATCC4698, 24 h.

For orientation: MIC means the smallest concentration in the dilution series that meets the test's criterion for growth inhibition. As a reminder, the MIC80 is the lowest concentration that inhibits either 80% of growth or 80% of the strains tested, depending on the study. Take `CCn1cc(C(=O)O)c(=O)c2cc(F)c(N3CCN(CC(O)CSc4ncn(Cc5ccc(Cl)c(Cl)c5)n4)CC3)cc21` (stereo unspecified): the minimum inhibitory concentration (MIC) turned out to be 64 µg/mL (≈ 101 µM) in the assay on Pseudomonas aeruginosa; 4 µg/mL (≈ 6.29 µM) in the assay on Staphylococcus aureus [2]; 8 µg/mL (≈ 12.6 µM) in the assay with Staphylococcus aureus [3]; 128 µg/mL (≈ 201 µM) in the assay on Bacillus subtilis; 64 µg/mL (≈ 101 µM) in assay [4]; 16 µg/mL (≈ 25.2 µM) in the assay on Escherichia coli. Besides, the minimal inhibitory concentration (MIC) was determined as 8 µg/mL (≈ 12.6 µM) in assay [5] and 32 µg/mL (≈ 50.4 µM) in the assay on Micrococcus luteus. The MIC80 came to 128 µg/mL (≈ 201 µM) in assay [1]; 32 µg/mL (≈ 50.4 µM) in the assay on Saccharomyces cerevisiae; 64 µg/mL (≈ 101 µM) with Candida albicans; 16 µg/mL (≈ 25.2 µM) in the assay with Aspergillus flavus; 128 µg/mL (≈ 201 µM) in the assay on Cyberlindnera jadinii.

Turning to `O=C(O)c1cn(C2CC2)c2cc(N3CCN(CC(O)CSc4ncn(Cc5ccc(Cl)cc5Cl)n4)CC3)c(F)cc2c1=O` (stereo unspecified), the MIC with Pseudomonas aeruginosa was found to be 4 µg/mL (≈ 6.18 µM); in the assay on Staphylococcus aureus [2], 1 µg/mL (≈ 1.54 µM); in the assay with Staphylococcus aureus [3], 1 µg/mL (≈ 1.54 µM); in the assay with Bacillus subtilis, 2 µg/mL (≈ 3.09 µM); in assay [4], 1 µg/mL (≈ 1.54 µM); with Escherichia coli, 2 µg/mL (≈ 3.09 µM). The MIC (in assay [5]; in the assay on Micrococcus luteus) was 2 µg/mL (≈ 3.09 µM) each time. The MIC80 stood at 16 µg/mL (≈ 24.7 µM) in assay [1]; 64 µg/mL (≈ 98.8 µM) in the assay on Saccharomyces cerevisiae; 32 µg/mL (≈ 49.4 µM) in the assay with Candida albicans; 16 µg/mL (≈ 24.7 µM) with Aspergillus flavus; 4 µg/mL (≈ 6.18 µM) with Cyberlindnera jadinii.

In the case of `OC(Cn1cncn1)(Cn1cncn1)c1ccc(F)cc1F` [FLUCONAZOLE], the MIC80 came to 4 µg/mL (≈ 13.1 µM) in [1]; 16 µg/mL (≈ 52.2 µM) with Saccharomyces cerevisiae; 1 µg/mL (≈ 3.27 µM) in the assay on Candida albicans; 256 µg/mL (≈ 836 µM) in the assay with Aspergillus flavus; 8 µg/mL (≈ 26.1 µM) with Cyberlindnera jadinii.

Consider `O=C(O)c1cn(C2CC2)c2cc(N3CCN(CC4CO4)CC3)c(F)cc2c1=O` (stereo unspecified), for which the MIC is 2 µg/mL (≈ 5.16 µM) in the assay with Pseudomonas aeruginosa; 4 µg/mL (≈ 10.3 µM) in the assay on Staphylococcus aureus [2]; 1 µg/mL (≈ 2.58 µM) in the assay on Staphylococcus aureus [3]; 8 µg/mL (≈ 20.6 µM) in the assay on Bacillus subtilis; 2 µg/mL (≈ 5.16 µM) in assay [4]; 1 µg/mL (≈ 2.58 µM) with Escherichia coli. Further, the values for the minimal inhibitory concentration (MIC) (in assay [5]; with Micrococcus luteus) were 4 µg/mL (≈ 10.3 µM) and 2 µg/mL (≈ 5.16 µM), respectively. Further, the MIC80 stood at 1 µg/mL (≈ 2.58 µM) in assay [1]; 1 µg/mL (≈ 2.58 µM) with Saccharomyces cerevisiae; 2 µg/mL (≈ 5.16 µM) with Candida albicans; 1 µg/mL (≈ 2.58 µM) in the assay with Aspergillus flavus; 2 µg/mL (≈ 5.16 µM) in the assay with Cyberlindnera jadinii.

On to `O=C(O)c1cn(C2CC2)c2cc(N3CCN(CC(O)CSc4ncn(Cc5ccc(Cl)c(Cl)c5)n4)CC3)c(F)cc2c1=O` (stereo unspecified), for which the MIC worked out at 2 µg/mL (≈ 3.09 µM) in the assay on Pseudomonas aeruginosa; 0.5 µg/mL (≈ 0.772 µM) with Staphylococcus aureus [2]; 1 µg/mL (≈ 1.54 µM) with Staphylococcus aureus [3]; 0.5 µg/mL (≈ 0.772 µM) with Bacillus subtilis; 0.5 µg/mL (≈ 0.772 µM) in assay [4]; 1 µg/mL (≈ 1.54 µM) with Escherichia coli. Besides, the minimum inhibitory concentration (MIC) in [5] turned out to be 0.5 µg/mL (≈ 0.772 µM); in the assay on Micrococcus luteus, 1 µg/mL (≈ 1.54 µM). In addition, the MIC80 in [1] came to 8 µg/mL (≈ 12.4 µM); with Saccharomyces cerevisiae, 32 µg/mL (≈ 49.4 µM); with Candida albicans, 16 µg/mL (≈ 24.7 µM); in the assay with Aspergillus flavus, 16 µg/mL (≈ 24.7 µM); with Cyberlindnera jadinii it was 2 µg/mL (≈ 3.09 µM).

Turning to `Sc1ncn(Cc2ccc(Cl)c(Cl)c2)n1`, the minimum inhibitory concentration (MIC) in the assay with Pseudomonas aeruginosa came to 512 µg/mL (≈ 1970 µM); in the assay on Staphylococcus aureus [2], 256 µg/mL (≈ 984 µM); with Staphylococcus aureus [3], 128 µg/mL (≈ 492 µM); in the assay on Bacillus subtilis, 512 µg/mL (≈ 1970 µM); in assay [4] it was 512 µg/mL (≈ 1970 µM); in the assay on Escherichia coli, 256 µg/mL (≈ 984 µM). Also, the results for the MIC (in assay [5]; in the assay on Micrococcus luteus) were 512 µg/mL (≈ 1970 µM) and 256 µg/mL (≈ 984 µM), respectively. Moreover, the MIC80 in assay [1] is 256 µg/mL (≈ 984 µM); in the assay on Saccharomyces cerevisiae, 512 µg/mL (≈ 1970 µM); with Candida albicans, 512 µg/mL (≈ 1970 µM); with Aspergillus flavus, 512 µg/mL (≈ 1970 µM); with Cyberlindnera jadinii, 512 µg/mL (≈ 1970 µM).

For `Cn1nnnc1SCC(O)CNC1CCN(c2c(F)cc3c(=O)c(C(=O)O)cn(C4CC4)c3c2Cl)C1` (stereo unspecified), the minimal inhibitory concentration (MIC) in the assay with Pseudomonas aeruginosa is 1 µg/mL (≈ 1.86 µM); with Staphylococcus aureus [2], 2 µg/mL (≈ 3.72 µM); in the assay on Staphylococcus aureus [3], 2 µg/mL (≈ 3.72 µM); in the assay on Bacillus subtilis, 1 µg/mL (≈ 1.86 µM); in [4] it was 1 µg/mL (≈ 1.86 µM); in the assay on Escherichia coli it was 1 µg/mL (≈ 1.86 µM). Further, the MIC (in assay [5]; in the assay with Micrococcus luteus) was 1 µg/mL (≈ 1.86 µM) in each case. Moreover, the MIC80 in assay [1] was found to be 1 µg/mL (≈ 1.86 µM); in the assay with Saccharomyces cerevisiae it was 1 µg/mL (≈ 1.86 µM); in the assay on Candida albicans it was 2 µg/mL (≈ 3.72 µM); in the assay with Aspergillus flavus, 1 µg/mL (≈ 1.86 µM); in the assay with Cyberlindnera jadinii, 128 µg/mL (≈ 238 µM).

Consider `CCn1cc(C(=O)O)c(=O)c2cc(F)c(N3CCN(CC(O)Cn4cnc(S)n4)CC3)cc21` (stereo unspecified), for which the MIC with Pseudomonas aeruginosa is 64 µg/mL (≈ 134 µM); in the assay on Staphylococcus aureus [2], 128 µg/mL (≈ 269 µM); with Staphylococcus aureus [3], 64 µg/mL (≈ 134 µM); in the assay on Bacillus subtilis, 128 µg/mL (≈ 269 µM); in [4], 64 µg/mL (≈ 134 µM); in the assay on Escherichia coli it was 64 µg/mL (≈ 134 µM). The results for the MIC (in [5]; with Micrococcus luteus) were 128 µg/mL (≈ 269 µM) and 64 µg/mL (≈ 134 µM), respectively. For the same compound, the MIC80 in assay [1] worked out at 128 µg/mL (≈ 269 µM); with Saccharomyces cerevisiae it was 128 µg/mL (≈ 269 µM); with Candida albicans it was 128 µg/mL (≈ 269 µM); in the assay with Aspergillus flavus, 512 µg/mL (≈ 1070 µM); in the assay with Cyberlindnera jadinii, 64 µg/mL (≈ 134 µM).
